Reference: US6355799B1, “Substituted benzene compounds, process for their preparation, and herbicidal and defoliant compositions containing them” (ISK Americas Incorporated, priority 1997, dated 2002)

Legend:
Format in all cases: in vivo
[1] = test system: redroot pigweed (Amaranthus retroflexus, AMARE); experiment: Pre-emerge test, greenhouse herbicide activity screening; conditions: pre-emerge, rated 14 days after application, 0 = no damage, 100 = complete death
Summary of the method: (§1)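 Herbicidal damage is scored 0 (none) to 100 (complete plant death) two weeks after a simulated field spray. Rates span 15–1000 g ai/ha, delivered in acetone at 187 l/ha. For post-emergence treatments, plants have 2–3 leaves and the spray carries 0.25% v/v non-ionic surfactant.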

[2] = test system: barnyardgrass (Echinochloa crus-galli, ECHCG); experiment: as above; conditions: pre-emerge, rated 14 days after application, 0 = no damage, 100 = complete death
Summary of the method: (§2)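 Applied at 15–1000 g ai/ha from acetone in 187 l/ha spray volume. Post-emergence applications included 0.25% v/v non-ionic surfactant and reached plants sown 8–21 days before. Pre-emergence applications were incorporated by surface watering. Efficacy or crop damage was rated on a 0–100 scale after 14 days.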

[3] = test system: green foxtail (Setaria viridis, SETVI); experiment: as above; conditions: pre-emerge, rated 14 days after application, 0 = no damage, 100 = complete death
Summary of the method: as §2

[4] = test system: ivyleaf morningglory (Ipomoea hederacea, IPOHE); experiment: as above; conditions: pre-emerge, rated 14 days after application, 0 = no damage, 100 = complete death
Summary of the method: as §2

[5] = test system: johnsongrass (Sorghum halepense, SORHA); experiment: as above; conditions: pre-emerge, rated 14 days after application, 0 = no damage, 100 = complete death
Summary of the method: as §2

[6] = test system: lambsquarters (Chenopodium album, CHEAL); experiment: as above; conditions: pre-emerge, rated 14 days after application, 0 = no damage, 100 = complete death
Summary of the method: as §2

[7] = test system: large crabgrass (Digitaria sanguinalis, DIGSA); experiment: as above; conditions: pre-emerge, rated 14 days after application, 0 = no damage, 100 = complete death
Summary of the method: as §2

[8] = test system: sicklepod (Cassia obtusifolia, CASOB); experiment: as above; conditions: pre-emerge, rated 14 days after application, 0 = no damage, 100 = complete death
Summary of the method: as §2

[9] = test system: velvetleaf (Abutilon theophrasti, ABUTH); experiment: as above; conditions: pre-emerge, rated 14 days after application, 0 = no damage, 100 = complete death
Summary of the method: as §2

[10] = test system: field corn (Zea mays L., var. Dekalb 535, CORN); experiment: Pre-emerge test, crop safety; conditions: pre-emerge, rated 14 days after application, 0 = no damage, 100 = complete death
Summary of the method: as §1

[11] = test system: upland rice (Oryza sp., var. Tebonnet, RICE); experiment: Pre-emerge test, crop safety; conditions: pre-emerge, rated 14 days after application, 0 = no damage, 100 = complete death
Summary of the method: as §1

[12] = test system: barnyardgrass (Echinochloa crus-galli, ECHCG); experiment: Post-emerge test, greenhouse herbicide activity screening; conditions: phytotoxicity rating 0-100 (0 no damage, 100 complete death), 14 days after application
Summary of the method: (§3)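 Each test used a mechanized track sprayer delivering 187 l/ha of acetone solution at 15–1000 g ai/ha. Post-emerge foliage at 2–3 leaves was treated with added 0.25% v/v non-ionic surfactant and bottom-watered only. Injury was assessed on day 14, where 100 means total kill.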

[13] = test system: common ragweed (Ambrosia artemisizfolia L., AMBEL); experiment: as above; conditions: phytotoxicity rating 0-100 (0 no damage, 100 complete death), 14 days after application
Summary of the method: as §3

[14] = test system: green foxtail (Setaria viridis, SETVI); experiment: as above; conditions: phytotoxicity rating 0-100 (0 no damage, 100 complete death), 14 days after application
Summary of the method: as §3

[15] = test system: ivyleaf morningglory (Ipomoea hederacea, IPOHE); experiment: as above; conditions: phytotoxicity rating 0-100 (0 no damage, 100 complete death), 14 days after application
Summary of the method: as §3

[16] = test system: johnsongrass (Sorghum halepense, SORHA); experiment: as above; conditions: phytotoxicity rating 0-100 (0 no damage, 100 complete death), 14 days after application
Summary of the method: as §3

[17] = test system: lambsquarters (Chenopodium album, CHEAL); experiment: as above; conditions: phytotoxicity rating 0-100 (0 no damage, 100 complete death), 14 days after application
Summary of the method: as §3

[18] = test system: large crabgrass (Digitaria sanguinalis, DIGSA); experiment: as above; conditions: phytotoxicity rating 0-100 (0 no damage, 100 complete death), 14 days after application
Summary of the method: as §3

[19] = test system: redroot pigweed (Amaranthus retroflexus, AMARE); experiment: as above; conditions: phytotoxicity rating 0-100 (0 no damage, 100 complete death), 14 days after application
Summary of the method: as §3

[20] = test system: sicklepod (Cassia obtusifolia, CASOB); experiment: as above; conditions: phytotoxicity rating 0-100 (0 no damage, 100 complete death), 14 days after application
Summary of the method: as §3

[21] = test system: velvetleaf (Abutilon theophrasti, ABUTH); experiment: as above; conditions: phytotoxicity rating 0-100 (0 no damage, 100 complete death), 14 days after application
Summary of the method: as §3

[22] = test system: field corn (Zea mays L., var. Dekalb 535, CORN); experiment: Post-emerge test, crop safety; conditions: phytotoxicity rating 0-100 (0 no damage, 100 complete death), 14 days after application
Summary of the method: as §2

[23] = test system: upland rice (Oryza sp., var. Tebonnet, RICE); experiment: Post-emerge test, crop safety; conditions: phytotoxicity rating 0-100 (0 no damage, 100 complete death), 14 days after application
Summary of the method: as §2

## CCn1c(C(F)(F)F)cc(=O)n(-c2c(F)cc(Cl)c(OC)c2N)c1=O [Compound 1-15]
[1]; 63 g ai/ha
  Pre-emerge Herbicidal Activity AMARE (phytotoxicity rating, scale 0-100): 0
[1]; 250 g ai/ha
  Pre-emerge Herbicidal Activity AMARE (phytotoxicity rating, scale 0-100): 20
[2]; 63 g ai/ha
  Pre-emerge Herbicidal Activity ECHCG (phytotoxicity rating, scale 0-100): 0
[2]; 250 g ai/ha
  Pre-emerge Herbicidal Activity ECHCG (phytotoxicity rating, scale 0-100): 0
[3]; 63 g ai/ha
  Pre-emerge Herbicidal Activity SETVI (phytotoxicity rating, scale 0-100): 70
[3]; 250 g ai/ha
  Pre-emerge Herbicidal Activity SETVI (phytotoxicity rating, scale 0-100): 80
[4]; 63 g ai/ha
  Pre-emerge Herbicidal Activity IPOHE (phytotoxicity rating, scale 0-100): 0
[4]; 250 g ai/ha
  Pre-emerge Herbicidal Activity IPOHE (phytotoxicity rating, scale 0-100): 0
[5]; 63 g ai/ha
  Pre-emerge Herbicidal Activity SORHA (phytotoxicity rating, scale 0-100): 0
[5]; 250 g ai/ha
  Pre-emerge Herbicidal Activity SORHA (phytotoxicity rating, scale 0-100): 20
[6]; 63 g ai/ha
  Pre-emerge Herbicidal Activity CHEAL (phytotoxicity rating, scale 0-100): 40
[6]; 250 g ai/ha
  Pre-emerge Herbicidal Activity CHEAL (phytotoxicity rating, scale 0-100): 50
[7]; 63 g ai/ha
  Pre-emerge Herbicidal Activity DIGSA (phytotoxicity rating, scale 0-100): 0
[7]; 250 g ai/ha
  Pre-emerge Herbicidal Activity DIGSA (phytotoxicity rating, scale 0-100): 90
[8]; 63 g ai/ha
  Pre-emerge Herbicidal Activity CASOB (phytotoxicity rating, scale 0-100): 0
[8]; 250 g ai/ha
  Pre-emerge Herbicidal Activity CASOB (phytotoxicity rating, scale 0-100): 0
[9]; 63 g ai/ha
  Pre-emerge Herbicidal Activity ABUTH (phytotoxicity rating, scale 0-100): 20
[9]; 250 g ai/ha
  Pre-emerge Herbicidal Activity ABUTH (phytotoxicity rating, scale 0-100): 90
[10]; 63 g ai/ha
  Pre-emerge crop damage CORN (phytotoxicity rating, scale 0-100): 0
[10]; 250 g ai/ha
  Pre-emerge crop damage CORN (phytotoxicity rating, scale 0-100): 0
[11]; 63 g ai/ha
  Pre-emerge crop damage RICE (phytotoxicity rating, scale 0-100): 10
[11]; 250 g ai/ha
  Pre-emerge crop damage RICE (phytotoxicity rating, scale 0-100): 30
[12]; 63 g ai/ha
  Post-emerge Herbicidal Activity ECHCG: 0
[12]; 250 g ai/ha
  Post-emerge Herbicidal Activity ECHCG: 0
[13]; 63 g ai/ha
  Post-emerge Herbicidal Activity AMBEL: 0
[13]; 250 g ai/ha
  Post-emerge Herbicidal Activity AMBEL: 0
[14]; 63 g ai/ha
  Post-emerge Herbicidal Activity SETVI: 0
[14]; 250 g ai/ha
  Post-emerge Herbicidal Activity SETVI: 0
[15]; 63 g ai/ha
  Post-emerge Herbicidal Activity IPOHE: 0
[15]; 250 g ai/ha
  Post-emerge Herbicidal Activity IPOHE: 40
[16]; 63 g ai/ha
  Post-emerge Herbicidal Activity SORHA: 0
[16]; 250 g ai/ha
  Post-emerge Herbicidal Activity SORHA: 0
[17]; 63 g ai/ha
  Post-emerge Herbicidal Activity CHEAL: 0
[17]; 250 g ai/ha
  Post-emerge Herbicidal Activity CHEAL: 20
[18]; 63 g ai/ha
  Post-emerge Herbicidal Activity DIGSA: 0
[18]; 250 g ai/ha
  Post-emerge Herbicidal Activity DIGSA: 0
[19]; 63 g ai/ha
  Post-emerge Herbicidal Activity AMARE: 0
[19]; 250 g ai/ha
  Post-emerge Herbicidal Activity AMARE: 30
[20]; 63 g ai/ha
  Post-emerge Herbicidal Activity CASOB: 0
[20]; 250 g ai/ha
  Post-emerge Herbicidal Activity CASOB: 0
[21]; 63 g ai/ha
  Post-emerge Herbicidal Activity ABUTH: 30
[21]; 250 g ai/ha
  Post-emerge Herbicidal Activity ABUTH: 50
[22]; 63 g ai/ha
  Post-emerge Herbicidal Activity CORN (crop damage): 0
[22]; 250 g ai/ha
  Post-emerge Herbicidal Activity CORN (crop damage): 0
[23]; 63 g ai/ha
  Post-emerge Herbicidal Activity RICE (crop damage): 0
[23]; 250 g ai/ha
  Post-emerge Herbicidal Activity RICE (crop damage): 0
